Experimental data taken from PubChem BioAssay (NCI).
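96-well plates; 48 h exposure; 5 concentrations. Endpoints by linear interpolation between flanking doses. Not reached: highest tested concentration assigned. GI50: concentration for 50% inhibition of growth. Definition used: TGI = concentration required for complete inhibition of growth.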

Experiments:
Assay in all cases: NCI tumour cell line growth inhibition, 48 h
HCC-2998 colon = test system: HCC-2998 colon
HS 578T breast = test system: HS 578T breast
MCF7 breast = test system: MCF7 breast
MDA-MB-435 = test system: MDA-MB-435
MOLT-4 leukemia = test system: MOLT-4 leukemia
TK-10 renal = test system: TK-10 renal
DLD-1 colon = test system: DLD-1 colon
LXFL 529 NSCLC = test system: LXFL 529 NSCLC
SNB-78 CNS = test system: SNB-78 CNS

Question: With `O=C1Nc2ccccc2C1(c1ccc(O)cc1)c1ccc(O)cc1` as the compound, how does the GI50 (HCC-2998 colon) read?
Answer: 1.99 µM

Question: And the TGI (HCC-2998 colon)?
Answer: 27 µM

Question: And the GI50 (HS 578T breast)?
Answer: 0.0932 µM

Question: What about the TGI (HS 578T breast) of the same compound?
Answer: 0.298 µM

Question: What about the GI50 (MCF7 breast) of the same compound?
Answer: 0.378 µM

Question: What about the TGI (MCF7 breast) of the same compound?
Answer: 27.8 µM

Question: What about the GI50 (MDA-MB-435) of the same compound?
Answer: 23 µM

Question: And the TGI (MDA-MB-435)?
Answer: 71.3 µM

Question: What about the GI50 (MOLT-4 leukemia) of the same compound?
Answer: 26.6 µM

Question: And the TGI (MOLT-4 leukemia)?
Answer: 98.1 µM

Question: And the GI50 (TK-10 renal)?
Answer: 0.536 µM

Question: What about the TGI (TK-10 renal) of the same compound?
Answer: 39.6 µM

Question: Which results are given for `O=C(O)/C=C(\c1nc2ccc([N+](=O)[O-])cc2[nH]1)c1cc(Cl)ccc1O`?
Answer: GI50 (HCC-2998 colon): 4.13 µM; TGI (HCC-2998 colon): 29.4 µM; GI50 (HS 578T breast): 4.97 µM; TGI (HS 578T breast): > 100 µM; GI50 (MCF7 breast): 2.36 µM; TGI (MCF7 breast): 16.6 µM; GI50 (MDA-MB-435): 2.84 µM; TGI (MDA-MB-435): 34.5 µM; GI50 (MOLT-4 leukemia): 2.26 µM; TGI (MOLT-4 leukemia): 9.7 µM; GI50 (TK-10 renal): 4.11 µM; TGI (TK-10 renal): 15.4 µM

Question: `CC1CN1C(=O)NCCCCCCNC(=O)N1CC1C` (stereo not drawn) was tested. Which TGI (DLD-1 colon) did it give?
Answer: > 100 µM

Question: And the TGI (HCC-2998 colon)?
Answer: > 100 µM

Question: And the TGI (HS 578T breast)?
Answer: > 100 µM

Question: What about the TGI (LXFL 529 NSCLC) of the same compound?
Answer: > 100 µM

Question: And the TGI (MCF7 breast)?
Answer: > 100 µM

Question: What about the TGI (MDA-MB-435) of the same compound?
Answer: > 100 µM

Question: And the TGI (MOLT-4 leukemia)?
Answer: > 100 µM

Question: And the TGI (TK-10 renal)?
Answer: > 100 µM

Question: What does the source list for `CS(=O)(=O)CCNCc1ccc(-c2ccc3ncnc(Nc4ccc(OCc5ccccc5)cc4)c3c2)o1`?
Answer: GI50 (HCC-2998 colon): 5.26 µM; TGI (HCC-2998 colon): 12.1 µM; GI50 (HS 578T breast): 6.43 µM; TGI (HS 578T breast): > 20.5 µM; GI50 (MCF7 breast): 2.84 µM; TGI (MCF7 breast): > 17.7 µM; GI50 (MDA-MB-435): 4.94 µM; TGI (MDA-MB-435): 11.4 µM; GI50 (MOLT-4 leukemia): 9.31 µM; TGI (MOLT-4 leukemia): > 25 µM; GI50 (TK-10 renal): 0.285 µM; TGI (TK-10 renal): 9.7 µM

Question: What does the source list for `Nc1nc2c(nnn2C2CC(O)C(CO)O2)c(=O)[nH]1` (stereo not drawn)?
Answer: GI50 (HCC-2998 colon): 3.63 µM; TGI (HCC-2998 colon): > 92 µM; GI50 (HS 578T breast): > 33.9 µM; TGI (HS 578T breast): > 95.7 µM; GI50 (MCF7 breast): 4.21 µM; TGI (MCF7 breast): > 100 µM; GI50 (MDA-MB-435): 4.35 µM; TGI (MDA-MB-435): > 100 µM; GI50 (MOLT-4 leukemia): 2.61 µM; TGI (MOLT-4 leukemia): > 53 µM; GI50 (TK-10 renal): > 100 µM; TGI (TK-10 renal): > 100 µM

Question: For `COc1ccc(-c2nc(-c3nc4ccc(Cl)cc4[nH]3)c3ccccn23)cc1`, which GI50 (HCC-2998 colon) is on record?
Answer: 18.6 µM

Question: And the TGI (HCC-2998 colon)?
Answer: > 100 µM

Question: And the GI50 (HS 578T breast)?
Answer: 2.76 µM

Question: What about the TGI (HS 578T breast) of the same compound?
Answer: 8.06 µM

Question: What about the GI50 (MCF7 breast) of the same compound?
Answer: 3.15 µM

Question: And the TGI (MCF7 breast)?
Answer: 16 µM

Question: What about the GI50 (MDA-MB-435) of the same compound?
Answer: 2.3 µM

Question: And the TGI (MDA-MB-435)?
Answer: 7.64 µM

Question: And the GI50 (MOLT-4 leukemia)?
Answer: > 100 µM

Question: What about the TGI (MOLT-4 leukemia) of the same compound?
Answer: > 100 µM

Question: What about the GI50 (TK-10 renal) of the same compound?
Answer: 2.01 µM

Question: And the TGI (TK-10 renal)?
Answer: 5.11 µM

Question: Which results are given for `CCN(CC)C(c1ccc(N(C)C)cc1)C(c1ccc(N(C)C)cc1)N(CC)CC` (stereo not drawn)?
Answer: TGI (HCC-2998 colon): > 73 µM; TGI (LXFL 529 NSCLC): > 73 µM; TGI (MOLT-4 leukemia): > 73 µM; TGI (SNB-78 CNS): > 73 µM; TGI (TK-10 renal): > 73 µM

Question: Which results are given for `CCOC(=O)/C(C#N)=C/c1[nH]c(C(=O)OCc2ccccc2)c(C)c1C`?
Answer: TGI (DLD-1 colon): > 100 µM; TGI (HCC-2998 colon): > 100 µM; TGI (LXFL 529 NSCLC): > 100 µM; TGI (MOLT-4 leukemia): > 100 µM; TGI (TK-10 renal): > 100 µM

Question: Which results are given for `CC1(C)OC2=C(CC1Br)C(=O)C(=O)c1ccccc12` (stereo not drawn)?
Answer: GI50 (HCC-2998 colon): 1.69 µM; TGI (HCC-2998 colon): 3.12 µM; GI50 (HS 578T breast): 2.65 µM; TGI (HS 578T breast): 7.69 µM; GI50 (MCF7 breast): 1.68 µM; TGI (MCF7 breast): 3.74 µM; GI50 (MDA-MB-435): 1.69 µM; TGI (MDA-MB-435): 3.35 µM; GI50 (MOLT-4 leukemia): 2.27 µM; TGI (MOLT-4 leukemia): 5.26 µM; GI50 (TK-10 renal): 1.99 µM; TGI (TK-10 renal): 3.45 µM

Question: How did the TGI (HCC-2998 colon) turn out when `O=C(O)C(=Cc1ccc(-c2ccccc2)cc1)C(=O)O` was run?
Answer: 21.9 µM

Question: And the TGI (HS 578T breast)?
Answer: > 100 µM

Question: What about the TGI (MCF7 breast) of the same compound?
Answer: 33.5 µM

Question: What about the TGI (MDA-MB-435) of the same compound?
Answer: > 64.8 µM

Question: And the TGI (MOLT-4 leukemia)?
Answer: 53.6 µM

Question: And the TGI (TK-10 renal)?
Answer: 30.7 µM

Question: What does the source list for `O=S(=O)(NC1=NCCN1C(=S)SN1CCn2c1nsc2=S)c1cccc(Cl)c1`?
Answer: GI50 (HCC-2998 colon): 22.5 µM; TGI (HCC-2998 colon): 37.3 µM; GI50 (HS 578T breast): 39.3 µM; TGI (HS 578T breast): > 100 µM; GI50 (MCF7 breast): 15.9 µM; TGI (MCF7 breast): 36.3 µM; GI50 (MDA-MB-435): 9.69 µM; TGI (MDA-MB-435): 27.7 µM; GI50 (MOLT-4 leukemia): 12.8 µM; TGI (MOLT-4 leukemia): > 100 µM; GI50 (TK-10 renal): 11.5 µM; TGI (TK-10 renal): 28.5 µM
